Results from patent US12336982B2 (RODEO THERAPEUTICS CORPORATION, priority 2018, dated 2025).

biological target: T1, recombinant 15-PGDH (Homo sapiens, UniProt P15428); type: biochemical; conditions: recombinant human 15-PGDH, in vitro; read-out: PDGH Assay-IC50
T1 sequence (P15428 1-266): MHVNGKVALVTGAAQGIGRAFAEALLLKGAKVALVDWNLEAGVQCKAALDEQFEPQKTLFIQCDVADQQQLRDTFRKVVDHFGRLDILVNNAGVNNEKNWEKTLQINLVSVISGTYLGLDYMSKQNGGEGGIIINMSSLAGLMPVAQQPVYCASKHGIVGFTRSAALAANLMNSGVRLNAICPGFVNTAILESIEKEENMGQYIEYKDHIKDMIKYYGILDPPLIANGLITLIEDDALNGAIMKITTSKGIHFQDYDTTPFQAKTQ
Text: The Recombinant 15-PGDH is human unless otherwise specified.

IC50 | SMILES
< 2.5 nM | COCC[S+]([O-])c1sc2nc(-c3cnc4ncn(C)c4c3)cc(-c3ccccc3)c2c1N (stereo not shown) [Example 364]
< 2.5 nM | Cn1nccc1-c1cc(-c2cnc3c(c2)nnn3C)nc2sc([S@+]([O-])C3CCC3)c(N)c12 [Example 326]
< 2.5 nM | Cn1cc2cc(-c3cc(-c4ccc(OCCO)cc4)c4c(N)c([S+]([O-])C5CCC5)sc4n3)cnc2n1 (stereo not shown) [Example 283]
< 2.5 nM | Nc1c([S+]([O-])C2CCC2)sc2nc(-c3ccc(NCCO)nc3)cc(-c3ccccc3)c12 (stereo not shown) [Example 63]
2.5 to 10 nM | COCCC[S+]([O-])c1sc2nc(-c3cnc4c(cnn4CCO)c3)cc(-c3ccccc3)c2c1N (stereo not shown) [Example 301]
< 2.5 nM | COCCC[S+]([O-])c1sc2nc(-c3cnc4nn(CCO)cc4c3)cc(-c3ccccc3)c2c1N (stereo not shown) [Example 269]
2.5 to 10 nM | CNC(=O)c1ncc(-c2cc(-c3ccccc3)c3c(N)c([S+]([O-])CCCOC)sc3n2)cn1 (stereo not shown) [Example 165]
< 2.5 nM | COCCNc1ncc(-c2cc(-c3ncccn3)c3c(N)c([S+]([O-])C4CCC4)sc3n2)cn1 (stereo not shown) [Example 232]
< 2.5 nM | Nc1c([S@+]([O-])C2CCC2)sc2nc(-c3cncnc3)cc(-c3ccon3)c12 [Example 309]
< 2.5 nM | COCCC[S@@+]([O-])c1sc2nc(-c3cnc4c(cnn4C)c3)cc(-c3cccnc3)c2c1N [Example 101]
< 2.5 nM | COCC[S+]([O-])c1sc2nc(-c3cncnc3)cc(-c3ccn(C)n3)c2c1N (stereo not shown) [Example 337]
< 2.5 nM | Cn1nccc1-c1cc(-c2cncnc2)nc2sc([S+]([O-])C3CCC3)c(N)c12 (stereo not shown) [Example 195]
2.5 to 10 nM | COCCC[S+]([O-])c1sc2nc(-c3cnc4c(cnn4CCO)c3)cc(C3CC3)c2c1N (stereo not shown) [Example 302]
2.5 to 10 nM | CC(C)(C)[S+]([O-])c1sc2nc(-c3cnc(NCCO)nc3)cc(C3CCC3)c2c1N (stereo not shown) [Example 353]
< 2.5 nM | Cc1cc(-c2cc(-c3cncnc3)nc3sc([S+]([O-])C4CCC4)c(N)c23)n(C)n1 (stereo not shown) [Example 356]
< 2.5 nM | Cn1ccc(-c2cc(-c3cnc(NCCO)nc3)nc3sc([S+]([O-])C4CCC4)c(N)c23)n1 (stereo not shown) [Example 340]
< 2.5 nM | Cn1nccc1-c1cc(-c2cnc3ncn(C)c3c2)nc2sc([S@+]([O-])C3CCC3)c(N)c12 [Example 371]
< 2.5 nM | COCCC[S+]([O-])c1sc2nc(-c3cncnc3)cc(-c3ccnc(C)c3)c2c1N (stereo not shown) [Example 119]
≥ 10 nM | COCCC[S@+]([O-])c1sc2nc(-c3cncnc3)cc(-c3ccncn3)c2c1N [Example 239]
< 2.5 nM | COCC[S@@+]([O-])c1sc2nc(-c3cnn(C)c3)cc(C3CC3)c2c1N [Example 275]
2.5 to 10 nM | Nc1c([S+]([O-])C2CCC2)sc2nc(-c3cnc(NCCO)nc3)nc(-c3ccccc3)c12 (stereo not shown) [Example 431]
< 2.5 nM | COCC[S+]([O-])c1sc2nc(-c3cncnc3)cc(-c3ccon3)c2c1N (stereo not shown) [Example 352]
< 2.5 nM | Nc1ncc(-c2cc(-c3ccc(F)cn3)c3c(N)c([S+]([O-])C4CCC4)sc3n2)cn1 (stereo not shown) [Example 66]
2.5 to 10 nM | COCC[S+]([O-])c1sc2nc(-c3ccc(NC(C)=O)nc3)cc(-c3ccnn3C)c2c1N (stereo not shown) [Example 393]
< 2.5 nM | COCC[S@@+]([O-])c1sc2nc(-c3cccnc3)cc(C(F)(F)F)c2c1N [Example 80]
≥ 10 nM | Nc1c([S@@+]([O-])C2CCC2)sc2nc(-c3cnc(NCCO)nc3)cc(-c3cccnc3)c12 [Example 104]
< 2.5 nM | Cc1cc(-c2cncnc2)nc2sc([S+]([O-])C3CCC3)c(N)c12 (stereo not shown) [Example 164]
< 2.5 nM | Cn1nccc1-c1cc(-c2cnc(NCCO)nc2)nc2sc([S+]([O-])C(C)(C)C)c(N)c12 (stereo not shown) [Example 354]

IC50 | SMILES
2.5 to 10 nM | COCCC[S+]([O-])c1sc2nc(-c3cnc4c(cnn4C)c3)cc(-c3ccccc3)c2c1N (stereo not shown) [Example 116]
< 2.5 nM | CNc1ncc(-c2cc(-c3ccnn3C)c3c(N)c([S@+]([O-])CCOC)sc3n2)cn1 [Example 331]
2.5 to 10 nM | COCCC[S+]([O-])c1sc2nc(-c3cnc(NCCO)nc3)cc(C(F)(F)F)c2c1N (stereo not shown) [Example 139]
< 2.5 nM | COCCC[S+]([O-])c1sc2nc(-c3ccnnc3)cc(-c3ccccc3)c2c1N (stereo not shown) [Example 209]
< 2.5 nM | Cn1ccc(-c2cc(-c3cnc4nn(C)cc4c3)nc3sc([S+]([O-])C4CCC4)c(N)c23)n1 (stereo not shown) [Example 341]
< 2.5 nM | Cn1nccc1-c1cc(-c2cnc3nnn(C)c3c2)nc2sc([S+]([O-])C3CCC3)c(N)c12 (stereo not shown) [Example 369]
≥ 10 nM | COCC[S@+]([O-])c1sc2nc(-c3cncnc3)cc(-c3ncccn3)c2c1N [Example 231]
2.5 to 10 nM | Nc1c([S+]([O-])C2CCC2)sc2nc(-c3cnc4nn(CCO)cc4c3)cc(C3CCC3)c12 (stereo not shown) [Example 348]
< 2.5 nM | COCC[S@@+]([O-])c1sc2nc(-c3cc(=O)n(C)cn3)cc(-c3ccccc3)c2c1N [Example 220]
2.5 to 10 nM | CN(C)C(=O)c1ncc(-c2cc(-c3ccccc3)c3c(N)c([S+]([O-])C4CCC4)sc3n2)cn1 (stereo not shown) [Example 61]
< 2.5 nM | Cn1nccc1-c1cc(-c2cnn3ccnc3c2)nc2sc([S+]([O-])C3CCC3)c(N)c12 (stereo not shown) [Example 319]
≥ 10 nM | CS(=O)(=O)Nc1ncc(-c2cc(-c3ccccc3)c3c(N)c([S@@+]([O-])C4CCC4)sc3n2)cn1 [Example 69]
≥ 10 nM | COCC[S@+]([O-])c1sc2nc(-c3cnc4nn(C)cc4c3)nc(-c3ccccc3)c2c1N [Example 434]
2.5 to 10 nM | Nc1c([S+]([O-])C2CCC2)sc2nc(-c3cnc(NCCO)nc3)cc(-c3ccc(F)cc3)c12 (stereo not shown) [Example 158]
< 2.5 nM | COCC[S+]([O-])c1sc2nc(-c3cnc(N4CCOCC4)nc3)cc(C(F)(F)F)c2c1N (stereo not shown) [Example 424]
≥ 10 nM | COCCn1ccc(-c2cc(-c3cnc4nn(C)cc4c3)nc3sc([S@@+]([O-])CCOC)c(N)c23)n1 [Example 388]
< 2.5 nM | COCCC[S@@+]([O-])c1sc2nc(-c3cnc(NCCO)nc3)cc(C(F)(F)F)c2c1N [Example 207]
< 2.5 nM | COCCC[S@@+]([O-])c1sc2nc(-c3cnc(N)nc3)cc(C3CC3)c2c1N [Example 146]
2.5 to 10 nM | CN(C)CCOc1ccc(-c2cc(-c3ccccc3)c3c(N)c([S+]([O-])C4CCC4)sc3n2)cn1 (stereo not shown) [Example 60]
< 2.5 nM | Nc1c([S+]([O-])C2CCC2)sc2nc(-c3cnc(NCCO)nc3)cc(-c3ccon3)c12 (stereo not shown) [Example 351]
< 2.5 nM | Nc1c([S+]([O-])C2CCC2)sc2nc(-c3cnc(CO)nc3)cc(-c3ccccc3)c12 (stereo not shown) [Example 221]
< 2.5 nM | COCCC[S+]([O-])c1sc2nc(-c3cncnc3)cc(C)c2c1N (stereo not shown) [Example 163]
< 2.5 nM | Nc1c([S+]([O-])C2CCC2)sc2nc(-c3cncnc3)cc(-c3ccc(OCCO)cc3)c12 (stereo not shown) [Example 183]
< 2.5 nM | Cc1cn(C)nc1-c1cc(-c2cnc(N)nc2)nc2sc([S+]([O-])C3CCC3)c(N)c12 (stereo not shown) [Example 357]
< 2.5 nM | COCC[S@@+]([O-])c1sc2nc(-c3cnc4nn(C)cc4c3)cc(-c3ccnn3C)c2c1N [Example 335]
< 2.5 nM | Nc1c([S@+]([O-])C2CCC2)sc2nc(-c3cnc(NCCO)nc3)cc(-c3ncccc3F)c12 [Example 181]
< 2.5 nM | COCCC[S+]([O-])c1sc2nc(-c3cnc(NCCO)nc3)cc(-c3ccccc3)c2c1N (stereo not shown) [Example 125]
